Data from publication PMC9120017, “Inhibition mechanism of the chloride channel TMEM16A by the pore blocker 1PBC” (Nature Communications, 2022).
Like-named read-outs stand apart in the source and are kept apart here.

Target: T1, wild-type mouse TMEM16A (Mus musculus, UniProt Q8BHY3)
T1 construct: expressed in transfected cells; host or cells: HEK293T
T1 sequence (Q8BHY3 1-960): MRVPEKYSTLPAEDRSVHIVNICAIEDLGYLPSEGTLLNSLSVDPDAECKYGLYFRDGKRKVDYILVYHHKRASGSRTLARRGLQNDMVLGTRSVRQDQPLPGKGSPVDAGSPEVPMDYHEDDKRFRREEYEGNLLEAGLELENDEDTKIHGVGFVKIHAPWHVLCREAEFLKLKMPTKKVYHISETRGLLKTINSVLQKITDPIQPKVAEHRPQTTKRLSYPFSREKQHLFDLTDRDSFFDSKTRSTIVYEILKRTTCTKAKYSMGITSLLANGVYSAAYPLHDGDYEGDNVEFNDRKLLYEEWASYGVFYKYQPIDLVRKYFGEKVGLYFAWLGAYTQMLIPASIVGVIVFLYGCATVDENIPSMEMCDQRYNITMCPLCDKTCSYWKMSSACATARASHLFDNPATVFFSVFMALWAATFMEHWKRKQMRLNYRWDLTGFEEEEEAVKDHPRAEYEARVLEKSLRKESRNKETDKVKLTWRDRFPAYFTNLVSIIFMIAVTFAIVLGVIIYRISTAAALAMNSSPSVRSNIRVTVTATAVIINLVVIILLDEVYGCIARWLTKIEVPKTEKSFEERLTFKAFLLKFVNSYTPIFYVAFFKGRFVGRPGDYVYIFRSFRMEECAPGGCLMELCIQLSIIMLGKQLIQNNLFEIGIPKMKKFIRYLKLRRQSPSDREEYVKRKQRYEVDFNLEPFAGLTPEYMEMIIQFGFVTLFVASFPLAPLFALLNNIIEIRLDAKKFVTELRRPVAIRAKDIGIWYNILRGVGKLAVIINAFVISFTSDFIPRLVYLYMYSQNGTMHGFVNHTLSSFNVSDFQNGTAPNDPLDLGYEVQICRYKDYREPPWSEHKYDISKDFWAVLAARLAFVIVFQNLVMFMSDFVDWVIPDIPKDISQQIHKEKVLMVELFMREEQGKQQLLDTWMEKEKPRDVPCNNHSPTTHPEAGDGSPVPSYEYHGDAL
Test: Inside-out patch recording of 1PBC block, wild-type TMEM16A
Format: cell-based
Settings: for remaining activity at 1 µM / remaining activity at 3 µM: read-out: I/Imax
Experimental: HEK293T cells (ATCC CRL-1573) were maintained in Dulbecco’s modified Eagle’s medium (DMEM; Sigma-Aldrich) supplemented with 10 U ml^−1 penicillin, 0.1 mg ml^−1 streptomycin (Sigma-Aldrich), 2 mM L-glutamine (Sigma-Aldrich), and 10% FBS (Sigma-Aldrich) in a humidified atmosphere containing 5% CO2 at 37 °C. HEK293S GnTI^− cells (ATCC CRL-3022) were maintained in HyClone HyCell TransFx-H medium (GE Healthcare) supplemented with 10 U ml^−1 penicillin, 0.1 mg ml^−1 streptomycin, 4 mM L-glutamine, 0.15% poloxamer 188 (Sigma-Aldrich), and 1% FBS in an atmosphere containing 5% CO2 at 185 rpm at 37 °C. The ac splice variant of mouse TMEM16A (UniProt ID: Q8BHY3), mouse TMEM16B (UniProt ID: Q8CFW1), or mouse TMEM16F (UniProt ID: Q6P9J9) bearing a 3C cleavage site, a Venus YFP, a Myc tag, and a Streptavidin-binding peptide (SBP) downstream of the open reading frame in a modified pcDNA3.1 vector (Invitrogen) were used as described previously[21],[31]. Mutations were introduced using a modified QuikChange method[58] and were verified by sequencing.
HEK293T cells were transfected with 3–4 μg DNA per 6 cm Petri dish using the calcium phosphate co-precipitation method and were used within 24–96 h after transfection. Recordings were performed on inside-out patches excised from HEK293T cells expressing the construct of interest. Patch pipettes were pulled from borosilicate glass capillaries (O.D. 1.5 mm, I.D. 0.86 mm, Sutter Instrument) and were fire-polished with a microforge (Narishige) before use. Pipette resistance was typically 3–8 MΩ when filled with the recording solutions detailed below. Seal resistance was typically 4 GΩ or higher. Voltage-clamp recordings were made using Axopatch 200B, Digidata 1550, and Clampex 10.7 (Molecular Devices). Analog signals were filtered with the in-built 4-pole Bessel filter at 10 kHz and were digitized at 20 kHz. Solution exchange was achieved using a gravity-fed system through a theta glass pipette mounted on an ultra-fast piezo-driven stepper (Siskiyou). […] All recordings were performed at 20 °C.
A symmetrical ionic condition was used throughout. Stock solution with Ca^2+-EGTA contained 150 mM NaCl, 5.99 mM Ca(OH)2, 5 mM EGTA, and 10 mM HEPES at pH 7.40. Stock solution with EGTA contained 150 mM NaCl, 5 mM EGTA, and 10 mM HEPES at pH 7.40. Free Ca^2+ concentrations were adjusted by mixing the stock solutions at the required ratios calculated using the WEBMAXC program (http://web.stanford.edu/~cpatton/webmaxcS.htm). Patch pipettes were filled with the stock solution with Ca^2+-EGTA, which has a free Ca^2+ concentration of 1 mM. 1PBC (ChemBridge) stock was reconstituted in anhydrous DMSO (Sigma-Aldrich) at 100 mM and stored at −20 °C. Working solutions with 1PBC were prepared by serial dilution. Unless otherwise stated, experiments were performed at a saturating Ca^2+ concentration as shown in Supplementary Table 1 and the primary data were corrected for current rundown as described previously[21],[25].
Concentration-response relations, obtained from the ratio of the I-V plots before and after the application of the blocker, were fitted to the Hill equation,1 I/Imax=1/1+IC50/[blocker]^h where I/Imax is the normalized current responses, IC50 defines the concentration at which inhibition is at its half-maximum, and h is the Hill coefficient.

- Hill coefficient for 1PBC block: 1
- IC50 (0 mV, 2 µM Ca2+): 4.4 µM
- IC50 (0.4 μM Ca2+, 80 mV, empirical Hill fit of data scaled to open probability): 3.2 µM
- IC50 (0.8 μM Ca2+, 80 mV, empirical Hill fit of data scaled to open probability): 2.13 µM
- Steady-state current (normalized) (1 µM 1PBC, 0 mV, 2 µM Ca2+): 0.001783
- remaining activity at 1 µM (1 µM 1PBC, 0 mV, 2 µM Ca2+): 73%
- I/Imax scaled to open probability (1 µM 1PBC, 400 nM Ca2+, 80 mV): 0.3757
- I/Imax scaled to open probability (1 µM 1PBC, 800 nM Ca2+, 80 mV): 0.4419
- I/Imax scaled to open probability (1 µM 1PBC, 2 µM Ca2+, 80 mV): 0.5218
- Steady-state current (normalized) (1 µM 1PBC, 20 mV, 2 µM Ca2+): 0.134
- remaining activity at 1 µM (1 µM 1PBC, 20 mV, 2 µM Ca2+): 68.9%
- Steady-state current (normalized) (1 µM 1PBC, 40 mV, 2 µM Ca2+): 0.2463
- remaining activity at 1 µM (1 µM 1PBC, 40 mV, 2 µM Ca2+): 65.3%
- Steady-state current (normalized) (1 µM 1PBC, 60 mV, 2 µM Ca2+): 0.3454
- remaining activity at 1 µM (1 µM 1PBC, 60 mV, 2 µM Ca2+): 62.6%
- Steady-state current (normalized) (1 µM 1PBC, 80 mV, 2 µM Ca2+): 0.4256
- remaining activity at 1 µM (1 µM 1PBC, 80 mV, 2 µM Ca2+): 60.1%
- Steady-state current (normalized) (1 µM 1PBC, 100 mV, 2 µM Ca2+): 0.5103
- remaining activity at 1 µM (1 µM 1PBC, 100 mV, 2 µM Ca2+): 60.1%
- Steady-state current (normalized) (1 µM 1PBC, 120 mV, 2 µM Ca2+): 0.5951
- remaining activity at 1 µM (1 µM 1PBC, 120 mV, 2 µM Ca2+): 61.1%
- Steady-state current (normalized) (1 µM 1PBC, 140 mV, 2 µM Ca2+): 0.7035
- remaining activity at 1 µM (1 µM 1PBC, 140 mV, 2 µM Ca2+): 64.7%
- Steady-state current (normalized) (1 µM 1PBC, -20 mV, 2 µM Ca2+): -0.1486
- remaining activity at 1 µM (1 µM 1PBC, -20 mV, 2 µM Ca2+): 77.2%
- Steady-state current (normalized) (1 µM 1PBC, -40 mV, 2 µM Ca2+): -0.3126
- remaining activity at 1 µM (1 µM 1PBC, -40 mV, 2 µM Ca2+): 80.5%
- Steady-state current (normalized) (1 µM 1PBC, -60 mV, 2 µM Ca2+): -0.4807
- remaining activity at 1 µM (1 µM 1PBC, -60 mV, 2 µM Ca2+): 83%
- Steady-state current (normalized) (1 µM 1PBC, -80 mV, 2 µM Ca2+): -0.661
- remaining activity at 1 µM (1 µM 1PBC, -80 mV, 2 µM Ca2+): 86.1%
- Steady-state current (normalized) (1 µM 1PBC, -100 mV, 2 µM Ca2+): -0.836
- remaining activity at 1 µM (1 µM 1PBC, -100 mV, 2 µM Ca2+): 88%
- Steady-state current (normalized) (1 µM 1PBC, -120 mV, 2 µM Ca2+): -1.004
- remaining activity at 1 µM (1 µM 1PBC, -120 mV, 2 µM Ca2+): 89.7%
- Steady-state current (normalized) (1 µM 1PBC, -140 mV, 2 µM Ca2+): -1.145
- remaining activity at 1 µM (1 µM 1PBC, -140 mV, 2 µM Ca2+): 89.1%
- IC50 (2 μM Ca2+, 80 mV, empirical Hill fit of data scaled to open probability): 1.94 µM
- Steady-state current (normalized) (3 µM 1PBC, 0 mV, 2 µM Ca2+): 0.001316
- remaining activity at 3 µM (3 µM 1PBC, 0 mV, 2 µM Ca2+): 53.9%
- I/Imax scaled to open probability (3 µM 1PBC, 400 nM Ca2+, 80 mV): 0.2553
- I/Imax scaled to open probability (3 µM 1PBC, 800 nM Ca2+, 80 mV): 0.2864
- I/Imax scaled to open probability (3 µM 1PBC, 2 µM Ca2+, 80 mV): 0.3306
- Steady-state current (normalized) (3 µM 1PBC, 20 mV, 2 µM Ca2+): 0.0952
- remaining activity at 3 µM (3 µM 1PBC, 20 mV, 2 µM Ca2+): 48.9%
- Steady-state current (normalized) (3 µM 1PBC, 40 mV, 2 µM Ca2+): 0.1678
- remaining activity at 3 µM (3 µM 1PBC, 40 mV, 2 µM Ca2+): 44.5%
SMILES: N#Cc1c(C(F)(F)F)cc(O)n2c1nc1ccccc12 [1PBC]
